In ChEMBL document CHEMBL1201862, “PubChem BioAssay data set” (2004):
Activity calls are given as the source filed them. Cut-off read from the data, not from the text of the source: actives have a measured IC50 and inactives only a lower limit.

Target: Envelope glycoprotein gp160 (Human immunodeficiency virus 1, UniProt Q6QLK5)
Assay: inhibitors of HIV fusion peptide binding, primary screen, biochemical, uHTS, fluorescence dequenching (AID 1986)

Envelope glycoprotein gp160, sequence (Q6QLK5 whole entry, the tested form may be a part): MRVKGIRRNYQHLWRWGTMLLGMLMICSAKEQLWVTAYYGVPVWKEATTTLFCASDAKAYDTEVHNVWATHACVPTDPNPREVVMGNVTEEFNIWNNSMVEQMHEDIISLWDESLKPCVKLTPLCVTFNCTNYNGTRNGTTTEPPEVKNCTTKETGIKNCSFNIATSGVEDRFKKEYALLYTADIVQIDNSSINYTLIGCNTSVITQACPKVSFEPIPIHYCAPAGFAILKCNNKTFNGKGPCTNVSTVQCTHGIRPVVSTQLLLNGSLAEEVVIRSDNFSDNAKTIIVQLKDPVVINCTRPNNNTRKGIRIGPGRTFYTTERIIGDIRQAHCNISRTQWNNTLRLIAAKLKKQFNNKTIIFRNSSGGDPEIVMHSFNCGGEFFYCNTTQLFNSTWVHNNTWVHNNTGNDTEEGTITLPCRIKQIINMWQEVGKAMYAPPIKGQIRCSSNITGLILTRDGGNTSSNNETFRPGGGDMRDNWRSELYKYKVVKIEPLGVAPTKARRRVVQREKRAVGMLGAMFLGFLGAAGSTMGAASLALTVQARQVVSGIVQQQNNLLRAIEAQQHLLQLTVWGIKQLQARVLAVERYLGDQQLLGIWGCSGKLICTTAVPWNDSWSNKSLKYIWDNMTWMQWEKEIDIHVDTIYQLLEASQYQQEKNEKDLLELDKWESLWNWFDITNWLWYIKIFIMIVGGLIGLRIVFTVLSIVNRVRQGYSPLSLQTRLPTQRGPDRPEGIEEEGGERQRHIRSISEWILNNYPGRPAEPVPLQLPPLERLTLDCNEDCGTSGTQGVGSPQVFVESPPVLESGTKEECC

Oc1c(Br)cc(Br)c(/C=N/n2c(S)nnc2-c2ccccc2)c1Br
IC50: 12 µM (active)
